Test results: patent publication US20230414689A1, “COMPOSITION FOR PREVENTING, IMPROVING OR TREATING INFLAMMATORY BOWEL DISEASE, COMPRISING ISATIDIS FOLIUM EXTRACT” (MTHERA PHARMA CO., LTD, priority 2021, published 2023)

Columns and labels:
[1] = test system: 2.5% DSS-induced inflammatory bowel disease animal model; assay: Spleen weight and length (spleen ratio) in DSS-induced inflammatory bowel disease mice; type: in vivo, C57BL/6N male mice; conditions: 5-ASA 100 mg/kg oral, last day of administration
Experimental: (§1) 6-week-old C57BL/6N male mice were purchased and pre-bred for one week, and then they were randomly divided into a total of 4 groups of 8 mice per group, and experiments were conducted as shown in Table 1 below.
A representative symptom that can occur in relation to inflammatory bowel disease includes splenitis. As such, when the spleen becomes inflamed, the size of the spleen is increased by its nature (Nutrients 2019, 11(11), 2776), and in fact, it is known that the spleen becomes enlarged in the model of IBD induced after DSS treatment (Biol. Pharm. Bull. 43, 450-457 (2020)). Therefore, in order to evaluate the level of inflammation in the spleen of mice according to the administration of the Isatidis folium extract of the present invention, the mouse of Example 1 was sacrificed on the last day of each administration, and then the weight and length of the spleen of each group compared to those of the negative control group were measured, and the spleen ratio is shown.

[2] = test system: 2.5% DSS-induced inflammatory bowel disease animal model; assay: Body weight change in DSS-induced inflammatory bowel disease mice; type: in vivo, C57BL/6N male mice; conditions: 5-ASA 100 mg/kg oral for 10 days; 2.5% DSS in drinking water 8 days; body weight before DSS = 100%; negative control 84.50±2.78%, normal 104.89±1.09%
Experimental: as §1
Body weight loss is a representative symptom of inflammatory bowel disease (Scientific Reports volume 10, Article number: 3829 (2020)). The body weight of the mouse was measured once a day at the same time (10 am) using an electronic scale. The rate of change in body weight of each group was obtained by summing the body weight of 8 mice per group and then dividing by 8. The average body weight immediately before the start of administration of 2.5% DSS in drinking water was set as 100%, and the average body weight of each group was calculated every day to measure the rate of change in body weight. Significance was verified by performing a Mann-Whitney test for each group between the negative control group to which 2.5% DSS was administered in drinking water and the experimental group.

SMILES: Nc1ccc(O)c(C(=O)O)c1 [5-ASA, 5-aminosalicylic acid]
- decrease of weight and length of the spleen compared to negative control group [1]: 60.6%
- rate of change in body weight [2]: 88.62±1.52%
